Where a name gives a salt, the structure may show the parent alone.
Organism: Rattus norvegicus
Assay: Vasorelaxant activity expressed as negative logarithm of the concentration causing a 50% inhibition of spontaneous myogenic activity in rat portal vein.
Assay type: functional

Going from `CCC(C)(C)/N=C(\NC#N)Nc1cccnc1` to `C[C@@H](N/C(=C\[N+](=O)[O-])Nc1cccnc1)C(C)(C)C`, the pD2 falls from 8.75 to 6.

Going from `C[C@H](N/C(=C\[N+](=O)[O-])Nc1cccnc1)C(C)(C)C` to `CC(N/C(=N\C#N)Nc1ccncc1)C(C)(C)C` (stereo in doubt; 11) [PINACIDIL ANHYDROUS], the pD2 falls from 7.96 to 7.47.

Compared with `CC1(C)Oc2ccc(C#N)cc2[C@H](OC2=CC(=O)CC2)[C@H]1O`, `CC1(C)Oc2ccc(C#N)cc2[C@@H](OC2=CC(=O)CC2)[C@@H]1O` is higher in pD2: 5.26 for the first, 7.85 for the second.

Compared with `CC(N/C(=N\C#N)Nc1ccncc1)C(C)(C)C` (stereo in doubt; 12) [PINACIDIL ANHYDROUS], `CC1(C)C=C(n2ccccc2=O)c2cc(C#N)ccc2O1` [BIMAKALIM] is higher in pD2: 6.11 for the first, 8.2 for the second.

Going from `CC1(C)Oc2ccc(C#N)cc2C(N2CCCC2=O)C1O` (configuration not stated) [CROMAKALIM] to `CC1(C)Oc2ccc(C#N)cc2[C@@H](N2CCCC2=O)[C@@H]1O` [LEVCROMAKALIM], the pD2 rises from 5.66 to 7.89.

Compared with `CC1=Nc2ccc(Cl)cc2S(=O)(=O)N1` [DIAZOXIDE], `Nc1cc(N2CCCCC2)nc(N)[n+]1OS(=O)(=O)[O-]` [MINOXIDIL SULFATE] is higher in pD2: 5.5 for the first, 7.14 for the second.

Source: ChEMBL document CHEMBL1126732, “Synthesis of and radioligand binding studies with a tritiated pinacidil analogue: receptor interactions of structurally different classes of potassium channel openers and blockers” (J Med Chem, 1993)
